According to ChEMBL document CHEMBL6096680, “Development of PRC1 Inhibitors Employing Fragment-Based Approach and NMR-Guided Optimization” (J Med Chem, 2025):
pIC50, pKd: −log10 of the molar value. Active and inactive are the calls of the source. The rule behind the calls is not given here.

Assays:
[1] = Binding affinity to 15N-labeled RING1B (10 to 116 residues)/BMI1 (1 to 104 residues) (unknown origin) extracted from Escherichia coli BL21 (DE3) cells assessed as dissociation constant by NMR-based fragment screening analysis; parameters: species or system Homo sapiens
Homo sapiens [2] = organism: Homo sapiens; experiment: Binding affinity to 15N-labeled RING1B (10 to 116 residues)/BMI1 (1 to 104 residues) (unknown origin) extracted from Escherichia coli BL21 (DE3) cells assessed as sum of A79, G83 and T89 chemical shift perturbations at 100 uM by NMR binding analysis
Homo sapiens [3] = organism: Homo sapiens; experiment: Binding affinity to 15N-labeled RING1B (10 to 116 residues)/BMI1 (1 to 104 residues) (unknown origin) extracted from Escherichia coli BL21 (DE3) cells assessed as sum of A79, G83 and T89 chemical shift perturbations at 200 uM by NMR binding analysis
Homo sapiens [4] = organism: Homo sapiens; experiment: Binding affinity to 15N-labeled RING1B (10 to 116 residues)/BMI1 (1 to 104 residues) (unknown origin) extracted from Escherichia coli BL21 (DE3) cells assessed as ratio of chemical shift perturbations at 1:2 compound concentration ration by NMR binding analysis
[5] = (§1) Inhibition of 6His-tagged RING1B (10 to 116 residues)/BMI1 (1 to 104 residues) (unknown origin) extracted from Escherichia coli BL21 (DE3) cells preincubated with compound for 1 hrs followed by 3-(1-(4,26-dioxo-30-((3aS,4S,6aR)-2-oxohexahydro-1H-thieno[3,4-d]imidazol-4-yl)-7,10,13,16,19,22-hexaoxa-3,25-diazatriacontyl)-6-methoxy-1H-indol-4-yl)-5-(6-fluoro-1H-indol-4-yl)-4-isopropyl-1H-pyrrole-2-carboxylic acid addition and measured after 1 hrs by Alphascreen competition assay; parameters: species or system Homo sapiens
[6] = (§2) Inhibition of RING1B (10 to 116 residues)-BMI1 (1 to 104 residues) (unknown origin) extracted from Escherichia coli BL21 (DE3) cells using HeLa nucleosome as substrate assessed as reduction in reduction in H2AK119 ubiquitination preincubated with compound for 1 hrs followed by flag-tagged ubiquitin and substrate addition and measured after 1 hrs by Western blot analysis; parameters: species or system Homo sapiens
Homo sapiens [7] = organism: Homo sapiens; experiment: as §2; settings: time 2.0 hrs
[8] = Binding affinity to RING1B (10 to 116 residues)/BMI1 (1 to 104 residues) (unknown origin) extracted from Escherichia coli BL21 (DE3) cells assessed as dissociation constant by ITC analysis; parameters: species or system Homo sapiens
Homo sapiens [9] = organism: Homo sapiens; experiment: Binding affinity to 15N-labeled RING1A (7 to 113 residues)/BMI1 (1 to 104 residues) (unknown origin) extracted from Escherichia coli BL21 (DE3) cells assessed as chemical shift perturbation for amide of Gly83 residue at 60 to 120 uM by 1H-15N HSQC spectra based NMR titration analysis; settings: dose 60-120 µM
Homo sapiens [10] = organism: Homo sapiens; experiment: (§3) Binding affinity to 15N-labeled RING1B (10 to 116 residues)/BMI1 (1 to 104 residues) (unknown origin) extracted from Escherichia coli BL21 (DE3) cells assessed as chemical shift perturbation for amide of Gly83 residue at 60 to 120 uM by 1H-15N HSQC spectra based NMR titration analysis; settings: dose 60-120 µM
[11] = as §1, with “RING1A (7” for “RING1B (10”, “113 residues)-BMI1” for “116 residues)/BMI1”; parameters: species or system Homo sapiens
[12] = Selectivity ratio of IC50 for inhibition of 6His-tagged RING1B (10 to 116 residues)-BMI1 (1 to 104 residues) (unknown origin) extracted from Escherichia coli BL21 (DE3) cells to IC50 for inhibition of 6His-tagged RING1A (7 to 113 residues)-BMI1 (1 to 104 residues) (unknown origin) extracted from Escherichia coli BL21 (DE3) cells
[13] = as §3, with “to” for “to 15N-labeled”, “by measuring estimated dissociation constant” for “at 60 to 120 uM”; parameters: species or system Homo sapiens

Row | Activity (Homo sapiens [2]) | Activity (Homo sapiens [3]) | Ratio (Homo sapiens [4]) | pIC50 [5] | Compound | also measured
1 | 102 Hz | 163 Hz | 0.63 | 4.89 | CCc1c(-c2cccc3[nH]ccc23)[nH]c(C(=O)O)c1-c1cccc2[nH]ccc12 | pKd [1]: 5.05; pIC50 [6]: 4.71; inhibition (Homo sapiens [7]): Dose-dependent-effect; Inhibition Of E3 Ligase Activity Of Prc1 Observed
2 | 308 Hz | 329 Hz | 0.94 | 5.48 | CC(C)c1c(-c2cc(F)cc3[nH]ccc23)[nH]c(C(=O)O)c1-c1cccc2[nH]ccc12 | pKd [8]: 5.40
3 | 107 Hz | 172 Hz | 0.62 | 4.42 | CC(CO)c1c(-c2cccc3[nH]ccc23)[nH]c(C(=O)O)c1-c1cccc2[nH]ccc12 (stereo not drawn) | 
4 |  |  |  |  | COc1cc(-c2c(C(=O)O)[nH]c(-c3cc(F)cc4[nH]ccc34)c2C(C)C)c2ccn(CCNC(=O)CCOCCOCCOCCOCCOCCOCCNC(=O)CCCC[C@@H]3SC[C@@H]4NC(=O)N[C@@H]43)c2c1 | Activity (Homo sapiens [9]): Active; Activity (Homo sapiens [10]): Active
5 |  |  |  |  | Cc1cc(C(=O)O)[nH]c1-c1cccc2[nH]ccc12 | pKd [1]: 2.85
6 | 320 Hz | 330 Hz | 0.97 | 5.37 | CC(C)c1c(-c2cc(F)cc3[nH]ccc23)[nH]c(C(=O)O)c1-c1cc(F)cc2[nH]ccc12 | 
7 | 280 Hz | 305 Hz | 0.92 | 5.55 | CC(C)c1c(-c2cc(F)cc3[nH]ccc23)[nH]c(C(=O)O)c1-c1cc(Cl)cc2[nH]ccc12 | 
8 | 215 Hz | 264 Hz | 0.81 | 5.09 | CC(c1c(-c2cccc3[nH]ccc23)[nH]c(C(=O)O)c1-c1cccc2[nH]ccc12)C(F)F (stereo not drawn) | pIC50 [11]: 5.37; Ratio IC50 [12]: 2
9 |  |  |  | 4.96 | CC(C)c1c(-c2ccc3cc[nH]c3c2)[nH]c(C(=O)O)c1-c1c(Cl)ccc2[nH]ccc12 | 
10 |  |  |  |  | O=C(O)c1ccc(-c2ccccc2)s1 | pKd [1]: 2.15
11 |  |  |  |  | CCc1c(-c2cccc3[nH]ccc23)[nH]c(C(=O)O)c1-c1ccccc1Cl | pKd [1]: 4.94
12 |  |  |  | 5.29 | Cc1ccc2[nH]ccc2c1-c1[nH]c(C(=O)O)c(-c2c(Cl)ccc3[nH]ccc23)c1C(C)C | 
13 | 138 Hz | 211 Hz | 0.65 | 4.80 | O=C(O)c1[nH]c(-c2cccc3[nH]ccc23)c(C2CC2)c1-c1cccc2[nH]ccc12 | 
14 |  |  |  |  | O=C(O)c1ccc(-c2ccccc2)[nH]1 | pKd [1]: 2.44
15 |  |  |  | 5.28 | CC(C)c1c(-c2cc(Cl)cc3[nH]ccc23)[nH]c(C(=O)O)c1-c1c(Cl)ccc2[nH]ccc12 | 
16 | 298 Hz | 319 Hz | 0.93 | 5.26 | CC(C)c1c(-c2cc(F)cc3[nH]ccc23)[nH]c(C(=O)O)c1-c1cc(C(F)(F)F)cc2[nH]ccc12 | 
17 |  |  |  | 5.14 | CC(C)c1c(-c2cc(C(F)(F)F)cc3[nH]ccc23)[nH]c(C(=O)O)c1-c1c(Cl)ccc2[nH]ccc12 | pIC50 [6]: 5.17; inhibition (Homo sapiens [7]): Dose-dependent-effect; Inhibition Of E3 Ligase Activity Of Prc1 Observed
18 |  |  |  |  | CCc1c(C(=O)O)[nH]c(-c2cccc3[nH]ccc23)c1CC | pKd [13]: 3.60
19 |  |  |  |  | Cc1cc(-c2cccc3[nH]ccc23)[nH]c1C(=O)O | pKd [13]: 2.96

Row | Activity (Homo sapiens [2]) | Activity (Homo sapiens [3]) | Ratio (Homo sapiens [4]) | pIC50 [5] | Compound | also measured
20 |  |  |  | 5.36 | CC(C)c1c(-c2cc(F)cc3cc[nH]c23)[nH]c(C(=O)O)c1-c1c(Cl)ccc2[nH]ccc12 | 
21 | 216 Hz | 277 Hz | 0.78 | 5.10 | CC(CF)c1c(-c2cccc3[nH]ccc23)[nH]c(C(=O)O)c1-c1cccc2[nH]ccc12 (stereo not drawn) | 
22 |  |  |  |  | O=C(O)c1ccc(-c2cccc3[nH]ccc23)[nH]1 | pKd [13]: 2.66
23 | 268 Hz | 291 Hz | 0.92 | 5.25 | CCC(C)c1c(-c2cccc3[nH]ccc23)[nH]c(C(=O)O)c1-c1cccc2[nH]ccc12 (stereo not drawn) | 
24 |  |  |  | 5.70 | CC(C)c1c(-c2cccc3[nH]c(CO)cc23)[nH]c(C(=O)O)c1-c1c(Cl)ccc2[nH]ccc12 | 
25 | 313 Hz | 331 Hz | 0.95 | 5.64 | CCOc1cc(-c2c(C(=O)O)[nH]c(-c3cc(F)cc4[nH]ccc34)c2C(C)C)c2cc[nH]c2c1 | 
26 | 318 Hz | 338 Hz | 0.92 | 5.60 | COc1cc(-c2c(C(=O)O)[nH]c(-c3cc(F)cc4[nH]ccc34)c2C(C)C)c2cc[nH]c2c1 | 
27 |  |  |  | 5.24 | Cc1cc(-c2[nH]c(C(=O)O)c(-c3c(Cl)ccc4[nH]ccc34)c2C(C)C)c2cc[nH]c2c1 | pIC50 [11]: 5.60; Ratio IC50 [12]: 2
28 |  |  |  |  | CCc1c(-c2cccc3[nH]ccc23)[nH]c(C(=O)O)c1-c1ccccc1 | pKd [13]: 4.52
29 | 285 Hz | 309 Hz | 0.92 | 5.27 | CCc1cc(-c2c(C(=O)O)[nH]c(-c3cc(F)cc4[nH]ccc34)c2C(C)C)c2cc[nH]c2c1 | pIC50 [11]: 5.49; Ratio IC50 [12]: 2
30 |  |  |  | 5.30 | COc1cc(-c2[nH]c(C(=O)O)c(-c3c(Cl)ccc4[nH]ccc34)c2C(C)C)c2cc[nH]c2c1 | 
31 | 261 Hz | 319 Hz | 0.82 | 5.32 | Cc1cc(-c2c(C(=O)O)[nH]c(-c3cc(F)cc4[nH]ccc34)c2C(C)C)c2cc[nH]c2c1 | pIC50 [11]: 5.59; Ratio IC50 [12]: 2
32 | 295 Hz | 311 Hz | 0.95 | 5.44 | CC(C)c1c(-c2cccc3[nH]ccc23)[nH]c(C(=O)O)c1-c1cccc2[nH]ccc12 | pKd [8]: 5.19
33 |  |  |  | 5.66 | CC(C)c1c(-c2cccc3[nH]c(C(=O)O)cc23)[nH]c(C(=O)O)c1-c1c(Cl)ccc2[nH]ccc12 | 
34 |  |  |  | 5.54 | CC(C)c1c(-c2cccc3[nH]ccc23)[nH]c(C(=O)O)c1-c1c(Cl)ccc2[nH]ccc12 | 
35 |  |  |  |  | CCc1c(-c2cccc3[nH]ccc23)[nH]c(C(=O)O)c1C1CCCCC1 | pKd [13]: 3.77
36 |  |  |  | 5.40 | CC(C)c1c(-c2ccc3[nH]ccc3c2)[nH]c(C(=O)O)c1-c1c(Cl)ccc2[nH]ccc12 | 
37 |  |  |  | 5.20 | CCc1cc(-c2[nH]c(C(=O)O)c(-c3c(Cl)ccc4[nH]ccc34)c2C(C)C)c2cc[nH]c2c1 | 
